Results from paper PMC6112376, “Comprehensive Analyses and Prioritization of Tox21 10K Chemicals Affecting Mitochondrial Function by in-Depth Mechanistic Studies” (Environmental Health Perspectives, 2018).
Like-named read-outs stand apart in the source and are kept apart here.

Key:
HepG2 cells [1] = details: HepG2 cells, single number from one experiment; for IC50: read-out: MMP assays IC50 (µM) HepG2
HepG2 cells [2] = details: cited from earlier work
rat primary hepatocytes = assay: MMP assay in rat primary hepatocytes; details: for IC50: read-out: MMP assays IC50 (µM) Rat Hepatocytes
[3] = system: isolated rat liver mitochondria; assay: Oxygen consumption, Clark-type oxygen electrode; format: biochemical; details: for I-ADP, % of control (O2 consumption rate): glutamate/malate driven state 3 respiration; for I-ADP, % of control (O2 consumption rate) / I-sub, % of control (O2 consumption rate) / II-ADP, % of control (O2 consumption rate) / II-sub, % of control (O2 consumption rate): isolated rat liver mitochondria; for I-sub, % of control (O2 consumption rate): glutamate/malate driven state 4 respiration; for II-ADP, % of control (O2 consumption rate): succinate-driven state 3 respiration; for II-sub, % of control (O2 consumption rate): succinate-driven state 4 respiration
HepG2 cells [4] = assay: cells; details: Homo sapiens; for IC50: HepG2, read-out: MMP assays IC50 (µM) HepG2; for Emax: HepG2, read-out: MMP assays efficacy (%) HepG2
[5] = read-out: MMP assays IC50 (µM) qHTS-HepG2
[6] = rat hepatocytes, mean ± SD of three experiments
[7] = read-out: MMP assays IC50 (µM), qHTS-HepG2

SMILES | MMP assays efficacy (%) HepG2 (HepG2 cells [1]) | IC50 (HepG2 cells [1]) [µM] | MMP assays efficacy (%) qHTS-HepG2 (HepG2 cells [2]) | IC50 (HepG2 cells [2]; [5]) [µM] | MMP assays efficacy (%) Rat Hepatocytes (rat primary hepatocytes; [6]) | IC50 (rat primary hepatocytes; [6]) [µM] | also measured
CC1C2CC(CC2C2CCCC(O)C2)C1(C)C (centres unmarked) | -108% | 39.8 | -98±23% | 31.8 ± 17.5 | inactive |  | MMP assays IC50 (µM) Rat Hepatocytes (rat primary hepatocytes; [6]): inactive
Cc1cc(C(=C2C=CC(=N)C=C2)c2ccc(N)cc2)ccc1N [C.I. Basic violet 14] | -96% | 0.87 | -87±10% | 0.18 ± 0.16 | -71±37% | 6.84 ± 4.71 | 
Oc1ccc(Cl)cc1C1CCCC1 [Compound 4-Chloro-2-cyclopentylphenol] | -99% | 6.31 | -99±4% | 5.66 ± 1.93 | -85±8% | 33.6 ± 29.7 | 
CCCC(c1cc(C(C)(C)C)c(O)cc1C)c1cc(C(C)(C)C)c(O)cc1C | -100% | 7.08 | -106±11% |  | -61±15% | 21.1 ± 18.2 | IC50 (HepG2 cells [2]; [7]): 5.51 ± 1.58 µM
CCCCCCCCCCCC[N+](C)(C)Cc1ccccc1.[Br-] [Benzyldodecyldimethylammonium bromide] |  | 17.3 | -97±11% | 11.4 ± 4.34 | -44±3% | 18.4 ± 1.5 | 
Cl.Nc1ccc2cc3ccc(N)cc3nc2c1 [Proflavin hydrochloride] | -97% | 3.55 | -115±14% |  | -79±34% | 15.9 ± 5.23 | IC50 (HepG2 cells [2]; [7]): 1.66 ± 0.63 µM
CCCCCCCCCCCC[n+]1ccc2ccccc2c1.Cc1ccc(S(=O)(=O)[O-])cc1 [2-Dodecylisoquinolinium tosylate] | -110% | 4.35 | -83±5% | 3.53 ± 0.5 | -95±7% | 4.94 ± 2.78 | 
O=CC=C(c1ccccc1)c1ccccc1 [2-Propenal,3,3-diphenyl-] | -40% | 56.2 | -87±29% | 41.2 ± 19.3 | -78±36% | 17.1 ± 23.9 | 
CC(C)(C)c1cc(Cc2cc(C(C)(C)C)c(O)c(C(C)(C)C)c2)cc(C(C)(C)C)c1O [4,4'-Methylenebis(2,6-di-t-butylphenol)] | inactive |  | inactive |  | inactive |  | MMP assays IC50 (µM) HepG2 (HepG2 cells [1]): inactive; MMP assays IC50 (µM) qHTS-HepG2 (HepG2 cells [2]): inactive; MMP assays IC50 (µM) Rat Hepatocytes (rat primary hepatocytes; [6]): inactive
CCCCCCCCCCCCCC[P+](CCCCCC)(CCCCCC)CCCCCC.F[P-](F)(F)(F)(F)F [Trihexyltetradecylphosphonium hexafluorophosphate] | -91% | 1.12 |  |  | inactive |  | MMP assays IC50 (µM) Rat Hepatocytes (rat primary hepatocytes; [6]): inactive
CCCCCCCCCCCCn1cc[n+](C)c1.F[P-](F)(F)(F)(F)F | -119% | 5.01 |  |  | -111±27% | 8.81 ± 2.46 | 
CCCCCCCC[n+]1ccn(C)c1.F[P-](F)(F)(F)(F)F [1-Methyl-3-octylimidazolium hexafluorophosphate] | -77% | 25.1 |  |  | -86±43% | 39.8 | 
NNc1nc(-c2ccc([N+](=O)[O-])cc2)cs1 [2-Hydrazino-4-(4-nitrophenyl) thiazole] |  |  |  |  |  |  | I-ADP, % of control (O2 consumption rate) ([3]; 20 µM): 103 (50.6) % of control; I-sub, % of control (O2 consumption rate) ([3]; 20 µM): 119 (19.1) % of control; II-ADP, % of control (O2 consumption rate) ([3]; 20 µM): 98 (76.1) % of control; II-sub, % of control (O2 consumption rate) ([3]; 20 µM): 99 (30.4) % of control; I-ADP, % of control (O2 consumption rate) ([3]; 100 µM): 61 (32.3) % of control; I-sub, % of control (O2 consumption rate) ([3]; 100 µM): 159 (21.4) % of control; II-ADP, % of control (O2 consumption rate) ([3]; 100 µM): 114 (77.1) % of control; II-sub, % of control (O2 consumption rate) ([3]; 100 µM): 153 (33.1) % of control; Potential Mechanism ([3]; mitochondrial respiration in isolated rat liver mitochondria, Clark type oxygen electrode, over tested concentrations): Uncoupler + inhibitor
O=c1c2ccccc2[se]n1-c1ccccc1 [Ebselen] |  |  | -94±8% | 23.2 ± 0.93 | -58±5% |  | IC50 (HepG2 cells [4]): 19.4 µM; Emax (HepG2 cells [4]): 112%; IC50 (rat primary hepatocytes; Rattus norvegicus, Hepatocyte): 21.4 ± 5.35 µM
Cc1c(C(=O)NN2CCCCC2)nn(-c2ccc(Cl)cc2Cl)c1-c1ccc(Cl)cc1 [Rimonabant] |  |  | -127±12% |  | -53±1% |  | IC50 (HepG2 cells [2]; [7]): 25.6 ± 1.67 µM; IC50 (HepG2 cells [4]): 17.3 µM; Emax (HepG2 cells [4]): 73%; IC50 (rat primary hepatocytes; Rattus norvegicus, Hepatocyte): 17.4 ± 2.83 µM
